Laboratory results published in the NIST ThermoML archive (doi:10.1021/acs.jced.8b00583).

Details: for electrical conductivity / viscosity / mass density: 100 kPa; for electrical conductivity / viscosity / mass density / surface tension liquid-gas: Liquid; for electrical conductivity: Alternating current cell with electrodes; for viscosity: Capillary tube (Ostwald / Ubbelohde) method; for mass density: Vibrating tube method; for surface tension liquid-gas: Maximal bubble pressure; for Glass transition temperature: DSC

CC(=O)O.CCCCN [butylammonium acetate]
Details | Glass transition temperature [°C] | electrical conductivity [S/m] | mass density [kg/m3] | surface tension liquid-gas [mN/m] | viscosity [mPa·s]
– | -98.90 | – | – | – | –
293.15 K | – | 0.051 | 959.02 | 31.5 | 771.6
298.15 K | – | 0.065 | 955.95 | 31.1 | 546.33
303.15 K | – | 0.082 | 952.87 | 30.8 | 397.17
308.15 K | – | 0.103 | 949.87 | 30.5 | 294.59
313.15 K | – | 0.128 | 946.81 | 30.1 | 222.26
318.15 K | – | 0.159 | 943.73 | 29.8 | 163.91
323.15 K | – | 0.197 | 940.83 | 29.5 | 126.15
328.15 K | – | 0.244 | 937.8 | 29.1 | 95.03
333.15 K | – | 0.299 | 934.68 | 28.8 | 77.93

CCCC[NH3+].O=C[O-] [butylammonium formate]
Details | Glass transition temperature [°C] | electrical conductivity [S/m] | mass density [kg/m3] | surface tension liquid-gas [mN/m] | viscosity [mPa·s]
– | -108.50 | – | – | – | –
293.15 K | – | 0.287 | 976.96 | 33.8 | 160.19
298.15 K | – | 0.332 | 973.8 | 33.3 | 120.82
303.15 K | – | 0.384 | 970.66 | 32.9 | 92.68
308.15 K | – | 0.443 | 967.48 | 32.4 | 72.01
313.15 K | – | 0.511 | 964.4 | 32 | 57.07
318.15 K | – | 0.588 | 961.21 | 31.5 | 45.61
323.15 K | – | 0.67 | 958.02 | 31.1 | 37.22
328.15 K | – | 0.761 | 954.95 | 30.6 | 30.62
333.15 K | – | 0.873 | 951.82 | 30.2 | 25.39

CCC(=O)[O-].CCCC[NH3+] [butylammonium propanoate]
Details | Glass transition temperature [°C] | electrical conductivity [S/m] | mass density [kg/m3] | surface tension liquid-gas [mN/m] | viscosity [mPa·s]
– | -89.40 | – | – | – | –
293.15 K | – | 0.049 | 933.95 | 28.1 | 916.56
298.15 K | – | 0.06 | 930.84 | 27.8 | 669.24
303.15 K | – | 0.074 | 927.79 | 27.5 | 494.64
308.15 K | – | 0.091 | 924.86 | 27.1 | 371.06
313.15 K | – | 0.111 | 921.76 | 26.8 | 280.47
318.15 K | – | 0.135 | 918.77 | 26.5 | 211.76
323.15 K | – | 0.164 | 915.69 | 26.2 | 162.68
328.15 K | – | 0.196 | 912.7 | 25.9 | 128.4
333.15 K | – | 0.234 | 909.66 | 25.6 | 99.35

CCCC(=O)[O-].CCCC[NH3+] [n-butylammonium butanoate]
Details | Glass transition temperature [°C] | electrical conductivity [S/m] | mass density [kg/m3] | surface tension liquid-gas [mN/m] | viscosity [mPa·s]
– | -81.80 | – | – | – | –
293.15 K | – | 0.031 | 907.81 | 25.7 | 1112
298.15 K | – | 0.038 | 904.94 | 25.4 | 812.6
303.15 K | – | 0.047 | 902.06 | 25.1 | 599.38
308.15 K | – | 0.059 | 899.18 | 24.8 | 448.37
313.15 K | – | 0.073 | 896.28 | 24.5 | 338.47
318.15 K | – | 0.089 | 893.32 | 24.2 | 262.05
323.15 K | – | 0.109 | 890.57 | 23.9 | 199.16
328.15 K | – | 0.132 | 887.56 | 23.6 | 154.43
333.15 K | – | 0.159 | 884.61 | 23.4 | 126.18
